For experiment [1], the system named is HPK1 p-SLP-76 in Jurkat cells. Nature of the experiment: HPK1 p-SLP-76 inhibition assay in Jurkat cells (HTRF). It counts as cell-based. The settings on record: Homo sapiens, 4 h compound, anti-CD3 stimulation 20 min. The procedure:
Before compound treatment, Jurkat cells were starved in PRMI-1640 medium supplemented with 0.5% FBS overnight. The cell density was adjusted to 1*10^7 cells/mL in assay medium (RPMI-1640 no phenol red with 0.5% FBS) and 16 uL cell suspension was transferred per well to a 384-well plate (Corning #3765). […] of test compound was prepared in assay medium and 4 uL was added per well to the 384-well plate. The plate was then incubated at 37° C., 5% CO2 for 4 h. Jurkat cells in 384-well plate were stimulated with anti-CD3 (BD Biosciences #555329, final conc. is 10 ug/mL) for 20 min at 37° C., 5% CO2 by adding 4 uL 6× antibody solution per well. Phospho-SLP76 HTRF kit was purchased from Cisbio (63ADK076PEH). 8 uL 4× Lysis Buffer was added to 384-well plate after anti-CD3 stimulation. The plate was centrifuged at 1,000 rpm for 1 min, shaken at 250 rpm for 60 min and centrifuged again at 1,000 rpm for 5 min. Afterwards the cell lysates were transferred to the assay plate (Greiner #784075) with 16 uL per well. 4 uL detection antibody mix per well prepared in Detection Buffer was added to the assay plate, followed by centrifugation at 1,000 rpm for 1 min and incubation at 25° C. overnight. The fluorescence emission at two different wavelengths (665 nm and 620 nm) was read by an HTRF compatible microplate reader and the IC50 value of the compound was calculated.
For orientation: Time-resolved FRET reads energy transfer from a long-lived donor to a nearby acceptor.

For another experiment, the target named is T1, HPK1 (Homo sapiens, UniProt Q92918).
T1 construct: purchased Signal Chem M23-11G-10
T1 sequence (Q92918 1-346 limits assumed): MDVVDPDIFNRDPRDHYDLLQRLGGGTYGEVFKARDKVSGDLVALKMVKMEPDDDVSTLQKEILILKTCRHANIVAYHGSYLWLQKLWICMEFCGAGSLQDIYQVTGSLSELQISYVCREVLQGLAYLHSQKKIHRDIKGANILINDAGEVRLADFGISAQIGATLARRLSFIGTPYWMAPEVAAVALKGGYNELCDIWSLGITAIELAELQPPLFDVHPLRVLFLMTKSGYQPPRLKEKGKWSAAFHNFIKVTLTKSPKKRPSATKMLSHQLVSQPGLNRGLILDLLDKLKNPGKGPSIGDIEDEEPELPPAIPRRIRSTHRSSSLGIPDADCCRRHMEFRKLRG
Briefly: HPK1 enzyme inhibition assay (ADP-Glo). It counts as biochemical. The settings on record: MBP substrate, ATP. Here is the method:
The compound was dissolved in 100% DMSO at the concentration of 10 mM. The HPK1 protein was purchased from Signal Chem (M23-11G-10). 2.5 μL per well of 2×HPK1 protein was added to assay plate containing the test compound, centrifuged at 1500 rpm for 1 minute, and then incubated at 25° C. for 60 minutes. MBP protein was purchased from Signal Chem (M42-51N) and ATP was purchased from Promega (V9102). The two were added 2.5 μL per well mixture of 2×MBP (0.2 ug/ul) and ATP (20 μM), centrifuged at 1500 rpm for 1 minute, then incubated at 25° C. for 60 minutes. Then added 5 μL of ADP-Glo from Promega (V9102) to the assay plate and depleted the unconsumed ATP for 60 minutes. Then centrifuged at 1500 rpm for 1 minute and incubated at 25° C. for 60 minutes. Finally, 10 μL of the kinase assay reagent from Promega (V9102) was added to the assay plate to convert ADP to ATP, centrifuged at 1500 rpm for 1 minute, incubate at 25° C. for 40 minutes. After 40 minutes incubation, the […] was determined. Based on the results, the IC50 value of the compound was calculated.

The IC50 is the concentration needed to halve the response being measured. The low end stands for higher potency, the high end for lower potency. `O=C1CNCCN1c1cccc(-c2cnc3[nH]cc(C#Cc4cccnc4)c3c2Cl)c1` [Example 6, 1-(3-(4-chloro-3-(pyridin-3-ylethynyl)-1H-pyrrolo[2,3-b]pyridin-5-yl)phenyl)piperazin-2-one]: the IC50 lay in the range of 300 to 3000 nM in experiment [1] and 10 to 100 nM on HPK1.
For `COCC(=O)N1CCN(c2cccc(-c3cnc4[nH]cc(C#Cc5ccccn5)c4c3Cl)c2)C(=O)C1` [Example 35, 1-(3-(4-chloro-3-(pyridin-2-ylethynyl)-1H-pyrrolo[2,3-b]pyridin-5-yl)phenyl)-4-(2-methoxyacetyl)piperazin-2-one] the same measures were 3000 to 10000 nM and 10 to 100 nM.
Take `COCCS(=O)(=O)N1CCN(c2cccc(-c3cnc4[nH]cc(CC(F)F)c4c3Cl)c2)C(=O)C1` [Example 62, 1-(3-(4-chloro-3-(2,2-difluoroethyl)-1H-pyrrolo[2,3-b]pyridin-5-yl)phenyl)-4-((2-methoxyethyl)sulfonyl)piperazin-2-one]: the IC50 was 300 to 3000 nM in experiment [1] and ≤ 10 nM against HPK1.
For `CN(C)CC#Cc1c[nH]c2ncc(-c3cccc(N4CCNCC4=O)c3)c(Cl)c12` [Example 8, 1-(3-(4-chloro-3-(3-(dimethylamino)prop-1-yn-1-yl)-1H-pyrrolo[2,3-b]pyridin-5-yl)phenyl)piperazin-2-one] the same measures were > 10000 nM and > 1000 nM.
With `CCc1c[nH]c2ncc(-c3cccc(N4CCN(C(=O)CNc5ccc(C[C@@H](N)C(=O)O)cc5)CC4=O)c3)c(Cl)c12` [Example 46, (R)-2-amino-3-(4-((2-(4-(3-(4-chloro-3-ethyl-1H-pyrrolo[2,3-b]pyridin-5-yl)phenyl)-3-oxopiperazin-1-yl)-2-oxoethyl)amino)phenyl)propanoic acid], the IC50 in experiment [1] is 3000 to 10000 nM; on HPK1 it was ≤ 10 nM.
The matching figures for `COCC(=O)N1CCN(c2cccc(-c3cnc4[nH]cc(C#Cc5cccnc5)c4c3Cl)c2)C(=O)C1` [Example 29, 1-(3-(4-chloro-3-(pyridin-3-ylethynyl)-1H-pyrrolo[2,3-b]pyridin-5-yl)phenyl)-4-(2-methoxyacetyl)piperazin-2-one]: 300 to 3000 nM and ≤ 10 nM.
For `O=C1CNCCN1c1cc(-c2cnc3[nH]cc(C4CC4)c3c2Cl)ccn1` [Example 18, 1-(4-(4-chloro-3-cyclopropyl-1H-pyrrolo[2,3-b]pyridin-5-yl)pyridin-2-yl)piperazin-2-one] the same measures were 3000 to 10000 nM and 10 to 100 nM.
For `CC1CN(CCCS(=O)(=O)N2CCN(c3cccc(-c4cnc5[nH]cc(C6CC6)c5c4Cl)c3)C(=O)C2)C1` [Example 57, 1-(3-(4-chloro-3-cyclopropyl-1H-pyrrolo[2,3-b]pyridin-5-yl)phenyl)-4-((3-(3-methylazetidin-1-yl)propyl)sulfonyl)piperazin-2-one] the same measures were 300 to 3000 nM and ≤ 10 nM.
As for `COCC(=O)N1CCN(c2cccc(-c3cnc4[nH]cc(CC(F)F)c4c3Cl)c2)C(=O)C1` [Example 38, 1-(3-(4-chloro-3-(2,2-difluoroethyl)-1H-pyrrolo[2,3-b]pyridin-5-yl)phenyl)-4-(2-methoxyacetyl)piperazin-2-one], the figures for the IC50 (in experiment [1]; against HPK1) were 300 to 3000 nM and ≤ 10 nM, respectively.
The matching figures for `O=C1CNCCN1c1nc(-c2cnc3[nH]cc(C4CC4)c3c2Cl)cs1` [Example 11, 1-(4-(4-chloro-3-cyclopropyl-1H-pyrrolo[2,3-b]pyridin-5-yl)thiazol-2-yl)piperazin-2-one]: 3000 to 10000 nM and 10 to 100 nM.
For `CS(=O)(=O)N1CCN(c2cccc(-c3cnc4[nH]cc(CC(F)F)c4c3Cl)c2)C(=O)C1` [Example 51, 1-(3-(4-chloro-3-(2,2-difluoroethyl)-1H-pyrrolo[2,3-b]pyridin-5-yl)phenyl)-4-(methylsulfonyl)piperazin-2-one] the same measures were 300 to 3000 nM and ≤ 10 nM.
For `CCc1c[nH]c2ncc(-c3cc(N4CCNCC4=O)ccc3F)c(Cl)c12` [Example 17, 1-(3-(4-chloro-3-ethyl-1H-pyrrolo[2,3-b]pyridin-5-yl)-4-fluorophenyl)piperazin-2-one] the same measures were 300 to 3000 nM and 10 to 100 nM.
Regarding `O=C1CNCCN1c1cccc(-c2cnc3[nH]cc(CC(F)F)c3c2Cl)c1` [Example 12, 1-(3-(4-chloro-3-(2,2-difluoroethyl)-1H-pyrrolo[2,3-b]pyridin-5-yl)phenyl)piperazin-2-one], the IC50 in experiment [1] is 300 to 3000 nM; on HPK1, ≤ 10 nM.
`O=C1CN(S(=O)(=O)CCCN2CCOCC2)CCN1c1cccc(-c2cnc3[nH]cc(C4CC4)c3c2Cl)c1` [Example 55, 1-(3-(4-chloro-3-cyclopropyl-1H-pyrrolo[2,3-b]pyridin-5-yl)phenyl)-4-((3-morpholinopropyl)sulfonyl)piperazin-2-one]: the IC50 was 300 to 3000 nM in experiment [1] and ≤ 10 nM on HPK1.
Turning to `CCc1c[nH]c2ncc(-c3cccc(N4CCN(S(C)(=O)=O)CC4=O)c3)c(Cl)c12` [Example 52, 1-(3-(4-chloro-3-ethyl-1H-pyrrolo[2,3-b]pyridin-5-yl)phenyl)-4-(methylsulfonyl) piperazin-2-one], the IC50 in experiment [1] was 300 to 3000 nM; at HPK1 it was ≤ 10 nM.
For `CCc1c[nH]c2ncc(-c3cc(N4CCNCC4=O)ccc3CNC)cc12` [Example 41, 1-(3-(3-ethyl-1H-pyrrolo[2,3-b]pyridin-5-yl)-4-((methylamino)methyl)phenyl)piperazin-2-one] the same measures were > 10000 nM and > 1000 nM.
For `CN(C)CCCS(=O)(=O)N1CCN(c2cccc(-c3cnc4[nH]cc(C5CC5)c4c3Cl)c2)C(=O)C1` [Example 56, 1-(3-(4-chloro-3-cyclopropyl-1H-pyrrolo[2,3-b]pyridin-5-yl)phenyl)-4-((3-(dimethylamino)propyl)sulfonyl)piperazin-2-one] the same measures were 300 to 3000 nM and ≤ 10 nM.
Consider `O=C1CNCCN1c1cccc(-c2cnc3[nH]cc(CC(F)F)c3c2Cl)n1` [Example 16, 1-(6-(4-chloro-3-(2,2-difluoroethyl)-1H-pyrrolo[2,3-b]pyridin-5-yl)pyridin-2-yl)piperazin-2-one], for which the IC50 was 300 to 3000 nM in experiment [1] and 10 to 100 nM on HPK1.
The matching figures for `CCc1c[nH]c2ncc(-c3cccc(N4CCCC(CO)C4=O)c3)c(Cl)c12` (racemic) [Example 22, 1-(3-(4-chloro-3-ethyl-1H-pyrrolo[2,3-b]pyridin-5-yl)phenyl)-3-(hydroxymethyl)piperidin-2-one]: 300 to 3000 nM and ≤ 10 nM.
The matching figures for `CCc1c[nH]c2ncc(-c3cccc(N4CCN(C(=O)CO[C@@H]5O[C@H](CO)[C@@H](O)[C@H](O)[C@H]5O)CC4=O)c3)c(Cl)c12` [Example 49, 1-(3-(4-chloro-3-ethyl-1H-pyrrolo[2,3-b]pyridin-5-yl)phenyl)-4-(2-(((2R,3R,4S,5S,6R)-3,4,5-trihydroxy-6-(hydroxymethyl)tetrahydro-2H-pyran-2-yl)oxy)acetyl)piperazin-2-one]: > 10000 nM and ≤ 10 nM.
For `CCc1c[nH]c2ncc(-c3cccc(N4CCN(C(=O)CC56CC7CC(CC(C7)C5)C6)CC4=O)c3)c(Cl)c12` [Example 33, 4-(2-((1s,3s)-adamantan-1-yl)acetyl)-1-(3-(4-chloro-3-ethyl-1H-pyrrolo[2,3-b]pyridin-5-yl)phenyl)piperazin-2-one], the IC50 was in the range of 3000 to 10000 nM in experiment [1] and 10 to 100 nM against HPK1.
For `COC(=O)c1c[nH]c2ncc(-c3cccc(N4CCNCC4=O)c3)c(Cl)c12` [Example 2, Methyl 4-chloro-5-(3-(2-oxopiperazin-1-yl)phenyl)-1H-pyrrolo[2,3-b]pyridine-3-carboxylate] the same measures were > 10000 nM and 100 to 1000 nM.

The values above are taken from US20240368158A1, “KINASE MODULATORS, COMPOSITIONS COMPRISING THE KINASE MODULATOR, AND METHODS OF USING THE SAME” (BIOFRONT LTD, priority 2021, published 2024).
